Values of other authors, collected in patent US5935932A, “Bradykinin antagonists containing pentafluorophenylalanine” (University Technology Corporation, priority 1998, dated 1999).

Legend:
BK action = details: rabbits; subcutaneous injection; cited from earlier work
hypotensive action of BK = details: rats, cited from earlier work

DArg-Arg-Pro-Hyp-Gly-Igl-Ser-DIgl-Oic-Arg [Compound B9430]
duration of block of BK action (BK action): more than 24 hrs | bioavailability (hypotensive action of BK; intragastric administration): low | activity following intragastric administration (hypotensive action of BK; intragastric): active | duration of block of the hypotensive action of BK (hypotensive action of BK; single intravenous injection): more than four | duration of block of BK action (hypotensive action of BK; subcutaneous injection): 48 h
